Test results published in the supplement of paper PMC10307832.

What was measured:
Test in all cases: relative viability (nuclei count vs DMSO), 5 days (fraction); higher = more cells survive
Lenalidomide = compound: Nc1cccc2c1CN(C1CCC(=O)NC1=O)C2=O [Lenalidomide]
Procedure, shortened: (§1)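 A plate was accepted only when its control CV was below 25% and the cells had doubled at least once. Viability is defined from nuclear counts as treated wells divided by vehicle wells, with the median taken across plates. That median covers lung cancer cell lines grown in 1536-well plates, dosed by pinning at five √10-spaced library-drug concentrations, and counted in MetaXpress from 4× Hoechst images after 5 days.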

MIM1 = compound: CC1=CSC(=NC2CCCCC2)N1/N=C/C3=C(C(=C(C=C3)O)O)O [MIM1]
Procedure, shortened: as §1

Luminespib = compound: CCNC(=O)c1noc(-c2cc(C(C)C)c(O)cc2O)c1-c1ccc(CN2CCOCC2)cc1 [Luminespib]
Procedure, shortened: as §1

Nilotinib = compound: Cc1cn(-c2cc(NC(=O)c3ccc(C)c(Nc4nccc(-c5cccnc5)n4)c3)cc(C(F)(F)F)c2)cn1 [Nilotinib]
Procedure, shortened: as §1

Saracatinib = compound: CN1CCN(CCOc2cc(OC3CCOCC3)c3c(Nc4c(Cl)ccc5c4OCO5)ncnc3c2)CC1 [Saracatinib]
Procedure, shortened: as §1

Row | Cell Line | relative viability (Lenalidomide; 0.253 µM) | relative viability (Lenalidomide; 0.8 µM) | relative viability (Lenalidomide; 2.53 µM) | relative viability (Lenalidomide; 8 µM) | relative viability (MIM1; 0.2 µM) | relative viability (MIM1; 0.6325 µM) | relative viability (MIM1; 2 µM) | relative viability (MIM1; 6.325 µM) | relative viability (MIM1; 20 µM) | relative viability (Luminespib; 0.002 µM) | relative viability (Luminespib; 0.006325 µM) | relative viability (Luminespib; 0.01 µM, anchor plate) | relative viability (Luminespib; 0.02 µM) | relative viability (Luminespib; 0.06325 µM) | relative viability (Luminespib; 0.2 µM) | relative viability (Nilotinib; 0.001 µM) | relative viability (Nilotinib; 0.003162 µM) | relative viability (Nilotinib; 0.01 µM) | relative viability (Nilotinib; 0.1 µM) | relative viability (Saracatinib; 0.02 µM) | relative viability (Saracatinib; 0.2 µM) | relative viability (Saracatinib; 0.6325 µM) | relative viability (Saracatinib; 2 µM) | relative viability (Nilotinib; 0.03162 µM)
1 | NCI-H1792 | 1.09 | 0.715 | 1.35 | 0.419 | 0.966 | 0.79 | 0.728 | 0.76 | 0.659 | 0.926 | 0.71 | 0.52 | 0.348 | 0.167 | 0.107 | 0.706 | 0.817 | 1.07 | 0.831 | 1.09 | 0.726 | 1.03 | 0.776 | –
2 | NCI-H1793 | 0.962 | – | 1.08 | 0.37 | 0.874 | – | 0.838 | 0.809 | 0.858 | 0.775 | 0.84 | 0.192 | 0.248 | 0.137 | 0.15 | 0.91 | 1.22 | 1.28 | 0.204 | 0.909 | 0.674 | 1.01 | 0.666 | 0.623
3 | NCI-H1915 | 0.971 | 0.836 | 1.08 | 0.96 | 1.01 | 0.702 | 0.922 | 0.477 | 0.398 | 0.86 | 0.878 | 0.795 | 0.878 | 0.859 | 0.119 | 0.916 | 1.07 | 1.11 | 0.432 | 0.993 | 0.91 | 1.02 | 0.911 | 0.955
4 | NCI-H1944 | 0.989 | 0.743 | 0.973 | 0.713 | 0.982 | 0.864 | 0.63 | 0.568 | 0.477 | 0.936 | 0.954 | 0.749 | 0.595 | 0.721 | 0.333 | 1 | 1.11 | 1.21 | 0.988 | 0.996 | – | 0.915 | 0.555 | 0.924
5 | NCI-H1975 | 1.03 | 0.821 | 1.1 | 0.889 | 0.959 | 0.968 | 0.84 | 0.609 | 0.424 | 0.981 | 0.91 | 0.235 | 0.507 | 0.158 | 0.147 | 0.871 | 1 | 0.981 | 0.724 | 1.04 | 0.952 | 1.02 | 0.698 | 0.784
6 | NCI-H1993 | 0.941 | 0.784 | 1.05 | 0.642 | 0.929 | 0.944 | 0.907 | 0.678 | 0.561 | 0.995 | 0.898 | 0.875 | 0.584 | 0.565 | 0.415 | 0.912 | 0.95 | 0.899 | 0.613 | 0.951 | 0.8 | 0.457 | 0.648 | 0.901
7 | NCI-H2009 | 0.994 | 0.986 | 1.13 | 1.01 | 0.996 | 0.965 | 1.04 | 0.716 | 0.29 | 1.03 | 0.923 | 1.01 | 0.903 | 0.0828 | 0.0845 | 0.9 | 1.05 | 1.18 | 0.588 | 1.04 | 0.906 | 0.997 | 0.782 | 1
8 | NCI-H2023 | 0.928 | 1.04 | 1.13 | 0.968 | 0.896 | 0.954 | 0.847 | 0.43 | 0.0909 | 0.903 | 0.999 | 0.769 | 0.5 | 0.062 | 0.058 | 0.916 | 0.9 | 1.31 | 0.537 | 1.04 | 0.663 | 0.905 | 0.821 | 0.83
9 | NCI-H2085 | 0.975 | 0.811 | 1.06 | 0.944 | 0.995 | 0.974 | 1.02 | 0.817 | 0.947 | 0.964 | 0.931 | 0.466 | 0.779 | 0.576 | 0.384 | 1.03 | 1.06 | 1.12 | 0.754 | 1.02 | 0.893 | 1.09 | 0.967 | 0.91
10 | NCI-H2087 | 1.03 | 0.892 | 1.14 | 0.888 | 1.03 | 0.943 | 1.03 | 0.696 | 0.583 | 1.07 | 0.894 | 0.192 | 0.625 | 0.143 | 0.122 | 0.813 | 0.981 | 0.992 | 0.299 | 1.11 | 0.873 | 1.11 | 1.01 | 0.443
11 | NCI-H2126 | 1.01 | 0.859 | 1.08 | 0.788 | 1.04 | 0.91 | 1.04 | 0.897 | 0.688 | 0.967 | 0.962 | 0.919 | 0.646 | 0.756 | 0.26 | 0.995 | 1.09 | 1.03 | 0.601 | 1.07 | 0.965 | 0.931 | 0.816 | 0.937
12 | NCI-H2170 | 1 | 0.979 | 1.01 | 0.782 | 0.943 | 0.907 | 1.02 | 0.603 | 0.28 | 0.974 | 0.945 | 0.732 | 0.586 | 0.793 | 0.179 | 0.864 | 1.16 | 1.2 | 0.952 | 1 | 0.926 | 0.986 | 0.689 | 0.875
13 | NCI-H2228 | 0.795 | 1.07 | 1.22 | 0.89 | 0.999 | 0.978 | 1.31 | 0.517 | 0.172 | 1.23 | 0.87 | 0.148 | 0.451 | 0.172 | 0.157 | 0.773 | 1.5 | 1.36 | 0.511 | 1.04 | 0.825 | 0.9 | 0.841 | 0.698
14 | NCI-H2342 | 1.01 | 0.952 | 1.04 | 0.733 | 0.944 | 1 | 1.01 | 0.803 | 1.03 | 0.974 | 0.955 | 0.76 | 0.619 | 0.774 | 0.592 | 0.868 | 0.928 | 1.02 | 1.02 | 1.07 | 0.947 | 1.14 | 0.945 | 0.831
15 | NCI-H2347 | 1.03 | 1.13 | 1.17 | 0.9 | 1.1 | 0.972 | 1.09 | 0.757 | 0.478 | 1.02 | 0.721 | 0.421 | 0.911 | 0.722 | 0.318 | 0.97 | 1.14 | 1.13 | 0.793 | 0.983 | 0.903 | 1.09 | 1.06 | 0.841
16 | NCI-H2405 | 0.969 | 0.909 | 1.01 | 0.831 | 1.02 | 1.08 | 1.05 | 0.742 | 0.573 | 1.07 | 0.837 | 0.686 | 0.831 | 0.274 | 0.212 | 0.994 | 0.975 | 0.966 | 0.551 | 0.985 | 0.861 | 0.775 | 0.52 | 0.821
17 | NCI-H3122 | 0.999 | 1.04 | 1.01 | 1.06 | 0.979 | 1.04 | 1.01 | 0.551 | 0.257 | 1.05 | 0.958 | 0.0888 | 0.627 | 0.507 | 0.117 | 1.03 | 1.21 | 1.23 | 0.956 | 0.969 | 0.717 | 0.845 | 0.803 | 0.971
18 | PC-3 [JPC-3] | 1.03 | 0.899 | 1.13 | 1.08 | 1.05 | 1.04 | 0.988 | 0.874 | 0.439 | 1.01 | 0.915 | 0.669 | 0.982 | 0.961 | 0.281 | 1.03 | 1.07 | 1.11 | 0.656 | 1.02 | 0.945 | 0.766 | 0.541 | 1
19 | PC-14 | 1.01 | 1.02 | 1.12 | 1.1 | 0.959 | 1.01 | 0.836 | 0.807 | 0.325 | 1.02 | 0.933 | 0.164 | 0.572 | 0.0917 | 0.0993 | 0.944 | 1.14 | 1.26 | 0.643 | 1.01 | 0.675 | 0.453 | 0.234 | 0.879
20 | RERF-LC-KJ | 1.06 | 0.947 | 1.08 | 0.943 | 0.932 | 0.977 | 0.823 | 0.574 | 0.271 | 0.979 | 0.994 | 1.24 | 0.844 | 0.314 | 0.234 | 0.932 | 1.1 | 1.12 | 0.81 | 1.1 | 0.979 | 1.02 | 0.981 | 0.868
21 | SK-LU-1 | 0.963 | 1.03 | 1.23 | 0.903 | 1.05 | 1.08 | 1.12 | 0.934 | 0.617 | 1.09 | 0.777 | 0.202 | 0.644 | 0.186 | 0.192 | 0.932 | 0.927 | 1.24 | 0.894 | 1.03 | 0.802 | 0.707 | 0.53 | 0.718
22 | SK-MES-1 | 0.988 | 0.995 | 1.06 | 0.936 | 1.02 | 0.986 | 0.996 | 0.766 | 0.507 | 0.986 | 0.931 | 0.831 | 0.903 | 0.171 | 0.145 | 0.994 | 1.13 | 1.26 | 0.877 | 1 | 0.894 | 0.817 | 0.579 | 0.924
23 | SW 900 | 0.809 | – | 1.03 | 0.598 | 0.915 | 0.947 | 0.782 | 0.502 | 0.158 | 0.945 | 0.732 | 0.18 | 0.474 | 0.138 | 0.132 | 0.748 | 0.939 | 1.07 | 0.611 | 0.97 | 0.658 | 0.878 | 0.694 | 0.639
24 | SW 1573 | 0.914 | 1.01 | 1.08 | 0.925 | 1.1 | 0.966 | 0.976 | 0.763 | 0.488 | 1.04 | 0.976 | 0.217 | 0.595 | 0.108 | 0.107 | 0.906 | 1.2 | 1.12 | 0.66 | 0.931 | 0.785 | 0.877 | 0.729 | 0.737
25 | UMC-11 | 0.999 | 0.846 | 1.09 | 0.778 | 0.962 | 0.725 | 1.08 | 0.747 | 0.284 | 0.962 | 0.976 | 1.03 | 0.471 | 0.587 | 0.221 | 0.934 | 1.09 | 1.15 | 0.863 | 0.971 | 0.729 | 1.02 | 0.807 | 0.686
